Tests used:
Assay type in all cases: in vivo
[1] = tested on: barnyardgrass (Echinochloa crus-galli); test: Test B preemergence
Method in brief: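 Seeds were planted and sprayed preemergence with test chemical in a non-phytotoxic solvent mixture containing surfactant; postemergence plants (2 to 18 cm, 1- to 4-leaf stage) received the same formulation. Greenhouse hold 13 to 15 days, then visual rating versus untreated controls on a 0–100 scale (0 no effect, 100 complete control).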

Nightshade [2] = test: Test C preemergence; settings: Rate 500 g/ha, visual evaluation after 12 to 14 days
[3] = tested on: woolly cupgrass (Eriochloa villosa); test: Test C preemergence; settings: for Plant response rating (0 to 100), Cupgrass, Woolly: Rate 500 g/ha, visual evaluation after 12 to 14 days
Method in brief: (§1)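 Formulation: non-phytotoxic solvent mix incl. surfactant. Pre: applied right after planting. Post: 1–4-leaf seedlings. Read: visual 0–100, day 12–14, greenhouse.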

[4] = tested on: bermudagrass (Cynodon dactylon); test: Test C preemergence; settings: for Plant response rating (0 to 100 where 0 is no effect and 100 is complete control), Bermudagrass: Rate 500 g/ha, visual evaluation after 12 to 14 days
Method in brief: as §1

soybean (Glycine max) = test: Test C preemergence; settings: for Plant response rating (0 to 100), Soybean: Rate 500 g/ha, visual evaluation after 12 to 14 days
Method in brief: as §1

[5] = tested on: velvetleaf (Abutilon theophrasti); test: Test C preemergence; settings: for Plant response rating (0 to 100), Velvetleaf: Rate 500 g/ha, visual evaluation after 12 to 14 days
Method in brief: as §1

[6] = tested on: crabgrass (Digitaria sanguinalis); test: Test C preemergence; settings: for Plant response rating (0 to 100), Crabgrass: Rate 500 g/ha, visual evaluation after 12 to 14 days
Method in brief: as §1

[7] = tested on: morningglory (Ipomoea hederacea); test: Test C preemergence; settings: for Plant response rating (0 to 100), Morningglory: Rate 500 g/ha, visual evaluation after 12 to 14 days
Method in brief: as §1

[8] = tested on: yellow nutsedge (Cyperus esculentus); test: Test C preemergence; settings: for Plant response rating (0 to 100), Nutsedge: Rate 500 g/ha, visual evaluation after 12 to 14 days
Method in brief: as §1

Nightshade [9] = test: Test C preemergence
[10] = tested on: goosegrass (Eleusine indica); test: Test C preemergence; settings: for Plant response rating (0 to 100), Goosegrass: Rate 500 g/ha, visual evaluation after 12 to 14 days
Method in brief: as §1

kochia (Kochia scoparia) = test: Test C preemergence; settings: for Plant response rating (0 to 100), Kochia: Rate 500 g/ha, visual evaluation after 12 to 14 days
Method in brief: as §1

[11] = tested on: pigweed (Amaranthus retroflexus); test: Test C preemergence; settings: for Plant response rating (0 to 100), Pigweed: Rate 500 g/ha, visual evaluation after 12 to 14 days
Method in brief: as §1

corn (Zea mays) = test: Test C preemergence; settings: for Plant response rating (0 to 100), Corn: Rate 500 g/ha, visual evaluation after 12 to 14 days
Method in brief: as §1

[12] = tested on: cocklebur (Xanthium strumarium); test: Test C preemergence; settings: for Plant response rating (0 to 100), Cocklebur: Rate 500 g/ha, visual evaluation after 12 to 14 days
Method in brief: as §1

[13] = tested on: lambsquarters (Chenopodium album); test: Test C preemergence; settings: for Plant response rating (0 to 100), Lambsquarters: Rate 500 g/ha, visual evaluation after 12 to 14 days
Method in brief: as §1

[14] = tested on: johnsongrass (Sorghum halepense); test: Test C preemergence; settings: for Plant response rating (0 to 100), Johnsongrass: Rate 500 g/ha, visual evaluation after 12 to 14 days
Method in brief: as §1

[15] = tested on: giant foxtail (Setaria faberii); test: Test C preemergence; settings: for Plant response rating (0 to 100), Foxtail, Giant: Rate 500 g/ha, visual evaluation after 12 to 14 days
Method in brief: as §1

Sunflower = test: Test C preemergence; settings: Rate 500 g/ha, visual evaluation after 12 to 14 days
[16] = Preemergence, Rate 500 g/ha, scale 0 to 100, 0 no effect, 100 complete control
[17] = preemergence, Rate 125 g/ha, scale of 0 to 100 where 0 is no effect and 100 is complete control, 13 to 15 days
[18] = Rate 125 g/ha, scale 0 to 100, 0 no effect, 100 complete control
[19] = preemergence, Rate 62 g/ha, scale 0 to 100
[20] = preemergence, Rate 250 g/ha, scale 0 to 100, 0 no effect, 100 complete control
[21] = Rate 250 g/ha, scale 0 to 100, 0 no effect, 100 complete control

## CCC(C)c1ccn(C2CCN(c3ccc(Br)c(OC)c3)C2=O)n1 (stereo not shown) [Compound 142]
[1]; [16]
  Plant response rating, Barnyardgrass: 100
[1]; [17]
  Plant response rating, Barnyardgrass: 100
Nightshade [2]
  Plant response rating (0 to 100), Nightshade: 100
[3]; [18]
  Plant response rating, Cupgrass, Woolly: 100
[3]; [19]
  Plant response rating, Cupgrass, Woolly: 90
[3]; preemergence
  Plant response rating (0 to 100), Cupgrass, Woolly: 100
[3]; [20]
  Plant response rating, Cupgrass, Woolly: 100
[4]; [18]
  Plant response rating, Bermudagrass: 100
[4]; [19]
  Plant response rating, Bermudagrass: 100
[4]; preemergence
  Plant response rating (0 to 100 where 0 is no effect and 100 is complete control), Bermudagrass: 100
[4]; [20]
  Plant response rating, Bermudagrass: 100
Soybean (Glycine max); [18]
  Plant response rating, Soybean: 70
Soybean (Glycine max); [19]
  Plant response rating, Soybean: 30
Soybean (Glycine max); preemergence
  Plant response rating (0 to 100), Soybean: 100
Soybean (Glycine max); [20]
  Plant response rating, Soybean: 100
[5]; [18]
  Plant response rating, Velvetleaf: 90
[5]; [19]
  Plant response rating, Velvetleaf: 10
[5]; preemergence
  Plant response rating (0 to 100), Velvetleaf: 100
[5]; [20]
  Plant response rating, Velvetleaf: 100
[6]; [18]
  Plant response rating, Crabgrass: 100
[6]; [19]
  Plant response rating, Crabgrass: 100
[6]; preemergence
  Plant response rating (0 to 100), Crabgrass: 100
[6]; [20]
  Plant response rating, Crabgrass: 100
[7]; [18]
  Plant response rating, Morningglory: 100
[7]; [19]
  Plant response rating, Morningglory: 90
[7]; preemergence
  Plant response rating (0 to 100), Morningglory: 100
[7]; [20]
  Plant response rating, Morningglory: 100
[8]; [18]
  Plant response rating, Nutsedge: 0
[8]; [19]
  Plant response rating, Nutsedge: 0
[8]; preemergence
  Plant response rating (0 to 100), Nutsedge: 20
[8]; [20]
  Plant response rating, Nutsedge: 0
Nightshade [9]; Rate 62 g/ha, scale 0 to 100
  Plant response rating, Nightshade: 90
Nightshade [9]; [18]
  Plant response rating, Nightshade: 100
Nightshade [9]; [21]
  Plant response rating, Nightshade: 100
[10]; [18]
  Plant response rating, Goosegrass: 100
[10]; [19]
  Plant response rating, Goosegrass: 100
[10]; preemergence
  Plant response rating (0 to 100), Goosegrass: 100
[10]; [20]
  Plant response rating, Goosegrass: 100
Kochia (Kochia scoparia); [18]
  Plant response rating, Kochia: 100
Kochia (Kochia scoparia); [19]
  Plant response rating, Kochia: 100
Kochia (Kochia scoparia); preemergence
  Plant response rating (0 to 100), Kochia: 100
Kochia (Kochia scoparia); [20]
  Plant response rating, Kochia: 100
[11]; [18]
  Plant response rating, Pigweed: 100
[11]; [19]
  Plant response rating, Pigweed: 100
[11]; preemergence
  Plant response rating (0 to 100), Pigweed: 100
[11]; [20]
  Plant response rating, Pigweed: 100
Corn (Zea mays); [18]
  Plant response rating, Corn: 0
Corn (Zea mays); [19]
  Plant response rating, Corn: 0
Corn (Zea mays); preemergence
  Plant response rating (0 to 100), Corn: 10
Corn (Zea mays); [20]
  Plant response rating, Corn: 0
[12]; [18]
  Plant response rating, Cocklebur: 30
[12]; [19]
  Plant response rating, Cocklebur: 0
[12]; preemergence
  Plant response rating (0 to 100), Cocklebur: 60
[12]; [20]
  Plant response rating, Cocklebur: 30
[13]; [18]
  Plant response rating, Lambsquarters: 100
[13]; [19]
  Plant response rating, Lambsquarters: 100
[13]; preemergence
  Plant response rating (0 to 100), Lambsquarters: 100
[13]; [20]
  Plant response rating, Lambsquarters: 100
[14]; [18]
  Plant response rating, Johnsongrass: 0
[14]; [19]
  Plant response rating, Johnsongrass: 0
[14]; preemergence
  Plant response rating (0 to 100), Johnsongrass: 100
[14]; [20]
  Plant response rating, Johnsongrass: 100
[15]; [18]
  Plant response rating, Foxtail, Giant: 100
[15]; [19]
  Plant response rating, Foxtail, Giant: 100
[15]; preemergence
  Plant response rating (0 to 100), Foxtail, Giant: 100
[15]; [20]
  Plant response rating, Foxtail, Giant: 100
Sunflower
  Plant response rating (0 to 100), Sunflower: 80

## CCC(CC)c1ccn(C2CCN(c3ccc(Br)c(OC)c3)C2=O)n1 (stereo not shown) [Compound 143]
[1]; [16]
  Plant response rating, Barnyardgrass: 100
[1]; [17]
  Plant response rating, Barnyardgrass: 100
Nightshade [2]
  Plant response rating (0 to 100), Nightshade: 100
[3]; [18]
  Plant response rating, Cupgrass, Woolly: 100
[3]; [19]
  Plant response rating, Cupgrass, Woolly: 90
[3]; preemergence
  Plant response rating (0 to 100), Cupgrass, Woolly: 100
[3]; [20]
  Plant response rating, Cupgrass, Woolly: 100
[4]; [18]
  Plant response rating, Bermudagrass: 100
[4]; [19]
  Plant response rating, Bermudagrass: 100
[4]; preemergence
  Plant response rating (0 to 100 where 0 is no effect and 100 is complete control), Bermudagrass: 100
[4]; [20]
  Plant response rating, Bermudagrass: 100
Soybean (Glycine max); [18]
  Plant response rating, Soybean: 80
Soybean (Glycine max); [19]
  Plant response rating, Soybean: 70
Soybean (Glycine max); preemergence
  Plant response rating (0 to 100), Soybean: 100
Soybean (Glycine max); [20]
  Plant response rating, Soybean: 80
[5]; [18]
  Plant response rating, Velvetleaf: 70
[5]; [19]
  Plant response rating, Velvetleaf: 70
[5]; preemergence
  Plant response rating (0 to 100), Velvetleaf: 100
[5]; [20]
  Plant response rating, Velvetleaf: 90
[6]; [18]
  Plant response rating, Crabgrass: 100
[6]; [19]
  Plant response rating, Crabgrass: 100
[6]; preemergence
  Plant response rating (0 to 100), Crabgrass: 100
[6]; [20]
  Plant response rating, Crabgrass: 100
[7]; [18]
  Plant response rating, Morningglory: 100
[7]; [19]
  Plant response rating, Morningglory: 30
[7]; preemergence
  Plant response rating (0 to 100), Morningglory: 100
[7]; [20]
  Plant response rating, Morningglory: 100
[8]; [18]
  Plant response rating, Nutsedge: 0
[8]; [19]
  Plant response rating, Nutsedge: 0
[8]; preemergence
  Plant response rating (0 to 100), Nutsedge: 0
[8]; [20]
  Plant response rating, Nutsedge: 0
Nightshade [9]; Rate 62 g/ha, scale 0 to 100
  Plant response rating, Nightshade: 100
Nightshade [9]; [18]
  Plant response rating, Nightshade: 100
Nightshade [9]; [21]
  Plant response rating, Nightshade: 100
[10]; [18]
  Plant response rating, Goosegrass: 100
[10]; [19]
  Plant response rating, Goosegrass: 100
[10]; preemergence
  Plant response rating (0 to 100), Goosegrass: 100
[10]; [20]
  Plant response rating, Goosegrass: 100
Kochia (Kochia scoparia); [18]
  Plant response rating, Kochia: 100
Kochia (Kochia scoparia); [19]
  Plant response rating, Kochia: 100
Kochia (Kochia scoparia); preemergence
  Plant response rating (0 to 100), Kochia: 100
Kochia (Kochia scoparia); [20]
  Plant response rating, Kochia: 100
[11]; [18]
  Plant response rating, Pigweed: 100
[11]; [19]
  Plant response rating, Pigweed: 100
[11]; preemergence
  Plant response rating (0 to 100), Pigweed: 100
[11]; [20]
  Plant response rating, Pigweed: 100
Corn (Zea mays); [18]
  Plant response rating, Corn: 30
Corn (Zea mays); [19]
  Plant response rating, Corn: 30
Corn (Zea mays); preemergence
  Plant response rating (0 to 100), Corn: 30
Corn (Zea mays); [20]
  Plant response rating, Corn: 30
[12]; [18]
  Plant response rating, Cocklebur: 50
[12]; preemergence
  Plant response rating (0 to 100), Cocklebur: 55
[12]; [20]
  Plant response rating, Cocklebur: 50
[13]; [18]
  Plant response rating, Lambsquarters: 100
[13]; [19]
  Plant response rating, Lambsquarters: 100
[13]; preemergence
  Plant response rating (0 to 100), Lambsquarters: 100
[13]; [20]
  Plant response rating, Lambsquarters: 100
[14]; [18]
  Plant response rating, Johnsongrass: 60
[14]; [19]
  Plant response rating, Johnsongrass: 0
[14]; preemergence
  Plant response rating (0 to 100), Johnsongrass: 90
[14]; [20]
  Plant response rating, Johnsongrass: 90
[15]; [18]
  Plant response rating, Foxtail, Giant: 100
[15]; [19]
  Plant response rating, Foxtail, Giant: 100
[15]; preemergence
  Plant response rating (0 to 100), Foxtail, Giant: 100
[15]; [20]
  Plant response rating, Foxtail, Giant: 100
Sunflower
  Plant response rating (0 to 100), Sunflower: 90

From patent US7138361B2, “Herbicidal heterocycles” (E. I. du Pont de Nemours and Company, priority 2000, dated 2006)
